Data published in patent publication US20250145606A1 (Arcus Biosciences, Inc., priority 2023, published 2025).
pIC50: −log10 of the molar value. Like-named read-outs stand apart in the source and are kept apart here.

Experiments:
[1] = system: Phospho-KIT (Y703) in M07e cells; assay: Phospho-KIT (Y703) cellular assay in M07e cells; type: cell-based; settings: M-07e, read-out: M07e Cell IC50
How it was run: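 Serum-starved M07e cells preincubated 50 min at 37° C with 11-point half-log compound titration, then stimulated 10 min with SCF at 90.9 ng/mL final. Fixed, permeabilized cells stained for phospho-KIT Y703 and read by flow cytometry (live-gated geometric mean); IC50 by 4-parameter fit normalized to DMSO and positive control.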

c-Kit = c-Kit (Homo sapiens (Human), UniProt P10721); assay: Inhibition of c-Kit kinase activity (HTRF KinEASE-TK); type: biochemical; settings: biochemical
How it was run: (§1)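 Human kinases were preincubated 1 h at rt with a 22-point 1:2 compound titration, then run 120 min at rt with biotinylated TK peptide and ATP (2× mix: c-Kit 16 μM, PDGFRα 1 μM, PDGFRβ 40 μM, CSF1R 20 μM). Phosphopeptide was read by HTRF TR-FRET (665/620 nm), and IC50s came from 4-parameter fits.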

CSF1R = CSF1R (Homo sapiens (Human), UniProt P07333); assay: Inhibition of CSF1R kinase activity (HTRF KinEASE-TK); settings: biochemical
How it was run: as §1

PDGFRα = PDGFRα (Homo sapiens (Human), UniProt P16234); assay: Inhibition of PDGFRα kinase activity (HTRF KinEASE-TK); settings: biochemical
How it was run: as §1

PDGFRβ = PDGFRβ (Homo sapiens (Human), UniProt P09619); assay: Inhibition of PDGFRβ kinase activity (HTRF KinEASE-TK); settings: biochemical
How it was run: as §1

FLT3 = FLT3 (Homo sapiens (Human), UniProt P36888); assay: Inhibition of FLT3 kinase activity (HTRF KinEASE-TK); type: biochemical; settings: biochemical
Protocol: Inhibition of c-Kit, PDGFRα, PDGFRβ, CSFIR and FLT3 Kinase Activity
Compounds were evaluated to determine the potency with which they inhibit the kinase activity of the following panel of tyrosine kinases: c-Kit (SignalChem, Product #: K06-11BG), PDGFRα (SignalChem, Product #: P12-18G), PDGFRβ (SignalChem, Product #: P13-11G), CSFIR (SignalChem, Product #: C74-11G) and FLT3 (Invitrogen, Product #: PR4666C). Activity was determined as a function of phosphorylated biotinylated TK peptide generated by the transfer of phosphate from ATP as measured by the use of the HTRF KinEASE-TK assay kit (Cisbio, Product #: 62TKOPEJ). Levels of phosphorylated biotinylated TK peptide (Part 61TKOBLC of KinEASE assay kit) are quantified by its capture by phosphor-TK-Antibody-Cryptate (Part of KinEASE assay kit) and XL665-labeled Streptavidin (Part 610SAXLG of KinEASE assay kit) followed by measurement of Time-Resolved Fluorescence Resonance Energy Transfer (TR-FRET) signal. On the day of the assay, compounds were solubilized in DMSO and dispensed into a 384-well white Opti-plate (PerkinElmer, catalog #6007290) to generate a 22 point 1:2 titration. Enzyme solution was prepared for each of the tyrosine kinases in 50 mM HEPES, pH 7.4, 5 mM MgCl2 for c-Kit or 10 mM MgCl2 for FLT3, CSFIR, PDGFRa and PDGFRβ, 2 mM MnCl2, 0.01% Brij-35 and 0.01% BSA. Working enzyme concentrations were prepared for c-Kit at 2 nM (2×), PDGFRa and PDGFRß at 10 nM (2×), CSFIR at 2 nM (2×) and FLT3 at 0.4 nM (2×). Five microliters of enzyme dilution of each tyrosine kinase were added to their respective 384-well white Opti-plate pre-dispensed with compound and allowed to incubate for 1 h at rt. Utilizing the same enzyme buffer recipe, 2x substrate mixes were prepared for each enzyme as follows: For c-Kit, 1.6 μM (2×) TK substrate and 16 μM (2×) ATP (Promega, catalog #V915). For PDGFRα, 3.2 μM TK substrate and 1 μM ATP. For PDGFRβ, 3.2 μM TK substrate and 40 μM ATP. For CSFIR, […] TK substrate and 20 μM ATP. For FLT3, 3.2 μM TK substrate and 100 μM ATP. Reactions were initiated by addition of 5 μL of the respective 2x substrate mix to each well of the plates containing the respective tyrosine kinase enzymes and were allowed to proceed for 120 minutes at rt, except for FLT3, the reaction time is 45 min. Following the reaction, 10 μL of detection mix consisting of 0.2 μM (2×) of Streptavidin-XL665 and 2 μM (2×) of TK-Antibody-Cryptate prepared in detection buffer (Part 62SDBRDF of KinEASE assay kit) was added and then allowed to incubate for 60 min. The TR-FRET signal was quantified by measuring the ratio of emission at 665 nm to 620 nm after excitation at 320 nm by reading on a PerkinElmer Envision multimode reader. Compound potencies (IC50 values) were determined using a standard 4-parameter non-linear regression fit.

[2] = phospho-KIT (Y703), SCF-stimulated M07e cells

Sequence of PDGFRβ (P09619 33-1106): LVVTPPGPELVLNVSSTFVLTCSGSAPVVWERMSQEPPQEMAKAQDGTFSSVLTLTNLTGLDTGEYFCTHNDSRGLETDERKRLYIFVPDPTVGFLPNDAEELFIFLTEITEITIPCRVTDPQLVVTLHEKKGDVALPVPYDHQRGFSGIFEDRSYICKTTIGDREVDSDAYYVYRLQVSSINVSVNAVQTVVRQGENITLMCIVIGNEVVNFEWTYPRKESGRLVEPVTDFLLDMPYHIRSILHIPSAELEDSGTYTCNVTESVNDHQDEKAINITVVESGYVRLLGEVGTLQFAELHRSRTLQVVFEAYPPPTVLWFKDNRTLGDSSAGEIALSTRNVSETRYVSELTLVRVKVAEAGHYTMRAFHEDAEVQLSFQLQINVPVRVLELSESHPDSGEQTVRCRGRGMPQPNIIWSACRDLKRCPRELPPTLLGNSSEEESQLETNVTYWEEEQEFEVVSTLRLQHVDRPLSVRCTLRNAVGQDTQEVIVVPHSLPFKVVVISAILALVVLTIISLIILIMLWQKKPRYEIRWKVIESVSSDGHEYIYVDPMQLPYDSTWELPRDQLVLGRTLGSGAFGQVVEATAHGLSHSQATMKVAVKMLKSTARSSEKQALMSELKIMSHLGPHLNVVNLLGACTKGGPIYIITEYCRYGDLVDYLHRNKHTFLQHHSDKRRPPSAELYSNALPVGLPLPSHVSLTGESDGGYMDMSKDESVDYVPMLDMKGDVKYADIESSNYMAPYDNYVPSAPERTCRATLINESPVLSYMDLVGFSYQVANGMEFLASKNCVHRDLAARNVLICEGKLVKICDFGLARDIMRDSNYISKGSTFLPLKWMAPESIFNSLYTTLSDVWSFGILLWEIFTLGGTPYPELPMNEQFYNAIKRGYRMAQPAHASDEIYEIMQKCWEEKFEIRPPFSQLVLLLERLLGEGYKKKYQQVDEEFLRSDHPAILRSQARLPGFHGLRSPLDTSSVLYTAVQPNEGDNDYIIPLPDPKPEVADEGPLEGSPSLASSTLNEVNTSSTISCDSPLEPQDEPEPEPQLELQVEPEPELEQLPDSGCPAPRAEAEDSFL
Sequence of FLT3 (P36888 27-993): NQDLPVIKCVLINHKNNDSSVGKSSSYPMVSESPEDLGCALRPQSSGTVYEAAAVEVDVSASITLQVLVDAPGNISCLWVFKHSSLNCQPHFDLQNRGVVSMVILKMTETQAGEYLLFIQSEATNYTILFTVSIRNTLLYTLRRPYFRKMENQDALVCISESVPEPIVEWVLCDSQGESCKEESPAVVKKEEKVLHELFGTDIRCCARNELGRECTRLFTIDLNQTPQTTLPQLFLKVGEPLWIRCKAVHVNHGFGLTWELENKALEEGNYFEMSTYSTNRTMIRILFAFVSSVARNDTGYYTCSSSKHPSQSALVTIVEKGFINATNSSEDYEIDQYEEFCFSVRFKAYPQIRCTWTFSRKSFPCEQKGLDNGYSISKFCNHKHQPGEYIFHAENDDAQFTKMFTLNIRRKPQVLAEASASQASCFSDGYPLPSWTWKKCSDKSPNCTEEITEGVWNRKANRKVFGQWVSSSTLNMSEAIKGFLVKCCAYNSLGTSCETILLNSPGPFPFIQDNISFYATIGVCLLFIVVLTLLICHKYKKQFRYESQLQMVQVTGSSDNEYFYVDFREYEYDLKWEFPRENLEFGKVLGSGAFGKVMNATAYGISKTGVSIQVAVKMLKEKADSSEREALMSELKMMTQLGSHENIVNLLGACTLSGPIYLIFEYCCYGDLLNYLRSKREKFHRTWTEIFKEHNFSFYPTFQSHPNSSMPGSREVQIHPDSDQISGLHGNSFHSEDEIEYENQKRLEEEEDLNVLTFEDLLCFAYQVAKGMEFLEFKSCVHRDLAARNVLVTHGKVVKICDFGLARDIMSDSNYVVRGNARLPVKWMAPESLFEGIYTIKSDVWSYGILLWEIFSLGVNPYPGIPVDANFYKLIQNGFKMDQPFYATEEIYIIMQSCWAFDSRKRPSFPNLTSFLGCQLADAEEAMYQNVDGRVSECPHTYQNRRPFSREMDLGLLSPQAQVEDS
Sequence of c-Kit (P10721 26-976): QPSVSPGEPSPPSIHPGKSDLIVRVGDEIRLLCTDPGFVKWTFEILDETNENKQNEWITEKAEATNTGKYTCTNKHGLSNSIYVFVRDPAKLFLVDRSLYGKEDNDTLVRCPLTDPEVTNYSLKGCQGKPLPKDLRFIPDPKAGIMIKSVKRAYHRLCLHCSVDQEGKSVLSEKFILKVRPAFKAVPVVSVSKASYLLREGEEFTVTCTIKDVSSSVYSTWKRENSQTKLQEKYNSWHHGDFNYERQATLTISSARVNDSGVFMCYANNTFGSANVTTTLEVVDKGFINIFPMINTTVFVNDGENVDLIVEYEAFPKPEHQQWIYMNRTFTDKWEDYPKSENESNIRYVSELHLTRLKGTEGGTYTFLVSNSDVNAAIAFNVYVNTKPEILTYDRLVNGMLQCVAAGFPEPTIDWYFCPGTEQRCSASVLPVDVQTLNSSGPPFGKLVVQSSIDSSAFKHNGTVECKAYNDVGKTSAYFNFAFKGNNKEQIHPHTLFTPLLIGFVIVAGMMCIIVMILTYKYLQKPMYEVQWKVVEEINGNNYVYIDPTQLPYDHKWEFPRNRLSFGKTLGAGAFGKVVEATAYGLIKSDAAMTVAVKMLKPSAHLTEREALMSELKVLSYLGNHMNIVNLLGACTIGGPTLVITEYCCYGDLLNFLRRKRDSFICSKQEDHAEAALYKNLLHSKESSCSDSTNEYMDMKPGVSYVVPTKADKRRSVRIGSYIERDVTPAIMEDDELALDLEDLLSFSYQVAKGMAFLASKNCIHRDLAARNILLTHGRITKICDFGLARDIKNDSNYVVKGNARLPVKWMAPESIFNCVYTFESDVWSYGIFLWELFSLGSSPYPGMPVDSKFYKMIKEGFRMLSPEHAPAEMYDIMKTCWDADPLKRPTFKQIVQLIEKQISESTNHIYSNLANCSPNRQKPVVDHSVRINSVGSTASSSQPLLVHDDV
Sequence of PDGFRα (P16234 24-1089): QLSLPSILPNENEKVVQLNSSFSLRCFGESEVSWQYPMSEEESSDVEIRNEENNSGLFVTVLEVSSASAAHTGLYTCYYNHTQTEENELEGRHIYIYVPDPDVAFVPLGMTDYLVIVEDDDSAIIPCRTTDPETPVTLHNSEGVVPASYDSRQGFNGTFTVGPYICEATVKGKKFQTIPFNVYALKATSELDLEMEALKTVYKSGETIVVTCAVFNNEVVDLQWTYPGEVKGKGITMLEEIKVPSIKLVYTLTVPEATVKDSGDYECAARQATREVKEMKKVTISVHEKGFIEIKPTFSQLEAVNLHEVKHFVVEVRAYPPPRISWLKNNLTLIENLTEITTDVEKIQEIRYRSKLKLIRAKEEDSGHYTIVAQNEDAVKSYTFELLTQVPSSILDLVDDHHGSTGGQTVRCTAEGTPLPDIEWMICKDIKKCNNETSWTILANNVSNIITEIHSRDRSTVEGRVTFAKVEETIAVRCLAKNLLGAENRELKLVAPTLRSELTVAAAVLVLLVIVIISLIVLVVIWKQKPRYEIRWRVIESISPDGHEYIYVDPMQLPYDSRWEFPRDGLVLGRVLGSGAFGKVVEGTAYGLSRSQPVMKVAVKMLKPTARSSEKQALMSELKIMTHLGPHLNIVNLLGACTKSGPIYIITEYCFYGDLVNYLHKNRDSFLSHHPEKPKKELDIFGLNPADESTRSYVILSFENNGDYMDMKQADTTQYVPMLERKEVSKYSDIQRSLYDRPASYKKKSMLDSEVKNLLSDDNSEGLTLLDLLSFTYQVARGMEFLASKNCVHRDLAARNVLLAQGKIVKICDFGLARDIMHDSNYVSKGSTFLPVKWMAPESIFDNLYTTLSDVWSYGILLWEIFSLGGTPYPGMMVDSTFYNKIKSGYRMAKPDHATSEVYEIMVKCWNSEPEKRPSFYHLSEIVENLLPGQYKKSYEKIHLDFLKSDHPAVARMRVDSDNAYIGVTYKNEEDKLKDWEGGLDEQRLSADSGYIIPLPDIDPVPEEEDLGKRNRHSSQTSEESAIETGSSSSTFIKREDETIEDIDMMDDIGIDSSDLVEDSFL
Sequence of CSF1R (P07333 20-972): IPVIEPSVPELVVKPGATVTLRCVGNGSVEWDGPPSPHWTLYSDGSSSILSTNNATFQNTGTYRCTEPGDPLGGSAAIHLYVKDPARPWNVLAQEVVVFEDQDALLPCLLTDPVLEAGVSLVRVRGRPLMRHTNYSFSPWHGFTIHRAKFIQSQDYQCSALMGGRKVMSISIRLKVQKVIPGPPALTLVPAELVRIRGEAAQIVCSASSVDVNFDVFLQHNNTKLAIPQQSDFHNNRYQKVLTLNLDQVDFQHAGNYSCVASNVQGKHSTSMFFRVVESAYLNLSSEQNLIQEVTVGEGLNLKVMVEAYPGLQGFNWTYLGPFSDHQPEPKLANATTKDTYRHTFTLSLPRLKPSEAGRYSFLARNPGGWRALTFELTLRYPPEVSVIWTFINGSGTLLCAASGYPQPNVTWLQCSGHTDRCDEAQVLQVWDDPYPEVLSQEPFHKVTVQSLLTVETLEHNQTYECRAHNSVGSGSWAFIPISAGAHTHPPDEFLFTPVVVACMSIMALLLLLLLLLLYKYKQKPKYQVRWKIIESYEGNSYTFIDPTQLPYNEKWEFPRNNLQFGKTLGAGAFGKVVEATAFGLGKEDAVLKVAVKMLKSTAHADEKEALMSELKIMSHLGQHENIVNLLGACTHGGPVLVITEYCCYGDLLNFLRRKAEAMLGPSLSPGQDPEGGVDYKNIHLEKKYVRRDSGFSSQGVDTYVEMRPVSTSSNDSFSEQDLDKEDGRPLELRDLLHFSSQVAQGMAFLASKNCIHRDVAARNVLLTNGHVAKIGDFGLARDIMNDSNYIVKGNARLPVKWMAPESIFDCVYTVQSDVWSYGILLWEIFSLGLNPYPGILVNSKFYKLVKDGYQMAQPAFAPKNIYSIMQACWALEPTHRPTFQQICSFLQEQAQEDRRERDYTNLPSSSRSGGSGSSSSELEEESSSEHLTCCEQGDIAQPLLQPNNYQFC

Row | Compound | pIC50 [1, 2] | pIC50 (c-Kit) | pIC50 (CSF1R) | pIC50 (PDGFRα) | pIC50 (PDGFRβ) | pIC50 (FLT3) | pIC50 ([1]; Phospho-KIT (Y703), M07e cells) | pIC50 (c-Kit; HTRF KinEASE-TK) | pIC50 (CSF1R; HTRF KinEASE-TK) | pIC50 (PDGFRα; HTRF KinEASE-TK) | pIC50 (PDGFRβ; HTRF KinEASE-TK) | pIC50 (FLT3; HTRF KinEASE-TK) | pIC50 [1]
1 | Cc1cc(F)c(C(=O)Nc2ccc(OC(F)F)cn2)cc1NC(=O)c1cnc(N)s1 [Example 9, 2-Amino-N-[5-[[5-(difluoromethoxy)pyridin-2-yl]carbamoyl]-4-fluoro-2-methylphenyl]-1,3-thiazole-5-carboxamide] | > 7.00 | > 7.00 | 6.00 to 7.00 | < 6.00 | 6.00 to 7.00 | < 6.00 |  |  |  |  |  |  | 
2 | COCc1ccc(NC(=O)c2cc(NC(=O)c3cnc(N)s3)c(C)cc2F)nc1 [Example 10, 2-Amino-N-[4-fluoro-5-[[5-(methoxymethyl)pyridin-2-yl]carbamoyl]-2-methylphenyl]-1,3-thiazole-5-carboxamide] | > 7.00 | > 7.00 | < 6.00 | < 6.00 | < 6.00 | < 6.00 |  |  |  |  |  |  | 
3 | Cc1cc(F)c(C(=O)Nc2ccc(CC(F)(F)F)cn2)cc1NC(=O)c1cnc(N)s1 [Example 11, 2-Amino-N-[4-fluoro-2-methyl-5-[[5-(2,2,2-trifluoroethyl)pyridin-2-yl]carbamoyl]phenyl]-1,3-thiazole-5-carboxamide] | > 7.00 | > 7.00 | 6.00 to 7.00 | 6.00 to 7.00 | > 7.00 | < 6.00 |  |  |  |  |  |  | 
4 | CCOc1cnc(NC(=O)c2cc(NC(=O)c3cnc(C)s3)c(C)cc2F)cn1 [Example 17, N-[5-[(5-Ethoxypyrazin-2-yl)carbamoyl]-4-fluoro-2-methylphenyl]-2-methyl-1,3-thiazole-5-carboxamide] |  |  |  |  |  |  | > 7.00 | > 7.00 | < 6.00 | < 6.00 | < 6.00 | < 6.00 | 
5 | Cc1ncc(C(=O)Nc2cc(C(=O)Nc3ccc(C(C)(F)F)cn3)c(F)cc2C)s1 [Example 20, N-[5-[[5-(1,1-Difluoroethyl)pyridin-2-yl]carbamoyl]-4-fluoro-2-methylphenyl]-2-methyl-1,3-thiazole-5-carboxamide] |  |  |  |  |  |  | > 7.00 | > 7.00 | < 6.00 | < 6.00 | < 6.00 | < 6.00 | 
6 | Cc1ncc(C(=O)Nc2cc(C(=O)N[C@@H]3C[C@H]3c3ccccc3)c(F)cc2C)s1 [Example 31, N-[4-Fluoro-2-methyl-5-[[(1R,2S)-2-phenylcyclopropyl]carbamoyl]phenyl]-2-methyl-1,3-thiazole-5-carboxamide] |  |  |  |  |  |  | > 7.00 | > 7.00 | < 6.00 | < 6.00 | < 6.00 | < 6.00 | 
7 | Cc1ncc(C(=O)Nc2cc(C(=O)Nc3ccc(OC(C)C)cn3)c(F)cc2C)s1 [Example 40, N-[4-fluoro-2-methyl-5-[(5-propan-2-yloxypyridin-2-yl)carbamoyl]phenyl]-2-methyl-1,3-thiazole-5-carboxamide] |  |  |  |  |  |  | > 7.00 | > 7.00 | < 6.00 | < 6.00 | < 6.00 | < 6.00 | 
8 | Cc1ncc(C(=O)Nc2cc(C(=O)Nc3ccc(CC(F)F)cn3)c(F)cc2C)s1 [Example 45, N-[5-[[5-(2,2-difluoroethyl)pyridin-2-yl]carbamoyl]-4-fluoro-2-methylphenyl]-2-methyl-1,3-thiazole-5-carboxamide] |  |  |  |  |  |  |  | > 7.00 | < 6.00 | < 6.00 | < 6.00 | < 6.00 | > 7.00
9 | Cc1ncc(C(=O)Nc2cc(C(=O)Nc3ccn(C(C)C)n3)c(F)cc2C)s1 [Example 63, N-[4-Fluoro-2-methyl-5-[(1-propan-2-ylpyrazol-3-yl)carbamoyl]phenyl]-2-methyl-1,3-thiazole-5-carboxamide] |  |  |  |  |  |  | > 7.00 | > 7.00 | < 6.00 | < 6.00 | < 6.00 | < 6.00 | 
10 | Cc1ncc(C(=O)Nc2cc(C(=O)Nc3ccn(CC(C)C)n3)c(F)cc2C)s1 [Example 64, N-[4-fluoro-2-methyl-5-[[1-(2-methylpropyl)pyrazol-3-yl]carbamoyl]phenyl]-2-methyl-1,3-thiazole-5-carboxamide] |  |  |  |  |  |  | > 7.00 | > 7.00 | < 6.00 | < 6.00 | < 6.00 | < 6.00 | 
11 | Cc1ncc(C(=O)Nc2cc(C(=O)Nc3ccc(C4(C(F)(F)F)CC4)cn3)c(F)cc2C)s1 [Example 67] |  |  |  |  |  |  | > 7.00 | > 7.00 | < 6.00 | < 6.00 | 6.00 to 7.00 | < 6.00 | 
12 | Cc1ncc(C(=O)Nc2cc(C(=O)Nc3ccc(CC(F)(F)F)cn3)c(C)cc2C)s1 [Example 75, N-(2,4-dimethyl-5-((5-(2,2,2-trifluoroethyl)pyridin-2-yl)carbamoyl)phenyl)-2-methylthiazole-5-carboxamide] |  |  |  |  |  |  |  | 6.00 to 7.00 | < 6.00 | < 6.00 | < 6.00 | < 6.00 | 6.00 to 7.00
13 | Cc1ncc(C(=O)Nc2cc(C(=O)Nc3ccc(COC(F)F)cn3)c(F)cc2C)s1 [Example 78, N-[5-[[5-(difluoromethoxymethyl)pyridin-2-yl]carbamoyl]-4-fluoro-2-methylphenyl]-2-methyl-1,3-thiazole-5-carboxamide] |  |  |  |  |  |  |  | > 7.00 | < 6.00 | < 6.00 | < 6.00 | < 6.00 | > 7.00
14 | Cc1ncc(C(=O)Nc2cc(C(=O)Nc3cncc(COC(F)F)c3)c(F)cc2C)s1 [Example 80, N-[5-[[5-(difluoromethoxymethyl)pyridin-3-yl]carbamoyl]-4-fluoro-2-methylphenyl]-2-methyl-1,3-thiazole-5-carboxamide] |  |  |  |  |  |  |  | > 7.00 | < 6.00 | < 6.00 | < 6.00 | < 6.00 | > 7.00
